Laboratory results published in patent US20130316965A1, “IDRABI[…] THE TREATMENT OF PULMONARY EMBOLISM AND FOR THE SECONDARY PREVENTION OF VENOUS THRO[…]” (priority 2011, published 2013).

Key:
[1] = tested on: patients with symptomatic pulmonary embolism with or without symptomatic deep venous thrombosis; assay: CASSIOPEA (EFC6034) phase III clinical trial: symptomatic recurrent PE/DVT (efficacy); assay type: in vivo, human
Experimental: Patients with confirmed symptomatic PE with or without acute symptomatic DVT are eligible for this trial. Treatment with a therapeutic dose of any LMWH or UFH or fondaparinux is allowed only within the 36 hours immediately preceding randomization. Randomization is performed as soon as the diagnosis of PE (and DVT if concomitant suspected symptomatic DVT) is confirmed.
(§1) A blinded central and independent adjudication committee (CIAC) assesses PE (and DVT when applicable), all episodes of locally confirmed or doubtful PE/DVT recurrences, clinically relevant bleedings and deaths. Adjudication results are the basis for the final analyses.
Patients in the 3-month stratum have an additional 13-week observational period after cessation of study treatment. Patients in the 6-month stratum have a 13-week up to 26-week observational period.
Injections of SSR126517E (or its placebo) is started 12 h after the last post-randomization enoxaparin administration. SSR126517E (or its placebo) is administered s.c. once-weekly for a period of 3 or 6 months. All patients receive a first 0.5 ml injection (3.0 mg in the SSR126517E group). The following injections are also 0.5 ml, except in patients with severe renal insufficiency (defined as creatinine clearance <30 mL/min), who decrease to a dosage of 0.3 ml (1.8 mg in the SSR126517E group).
The primary efficacy outcome is symptomatic recurrent PE/DVT (fatal or not), as validated by the CIAC, within 99 days for patients from both strata (3- and 6-month treatments).
A secondary efficacy outcome for patients in the 6-month stratum is symptomatic recurrent PE/DVT, as validated by the CIAC, within 190 days.
There are 2 additional efficacy outcomes: • the time to first symptomatic recurrent PE/DVT (fatal or non fatal) within the patient's treatment period, i.e. a combined analysis of the 3-and 6-month strata patients; • the separate components of the efficacy outcomes within 99 days (all patients) and within 190 days (6-month stratum patients only).
The definitions to confirm a suspected symptomatic episode of recurrent PE/DVT are as follows:
Efficacy analyses are performed on the—All-randomized—population (patients with a patient number and an allocated treatment number recorded in the IVRS database).
The secondary efficacy outcome (VTE recurrence within 190 days) for patients in the 6-month stratum is analyzed using the same method and applying the same non-inferiority margin.
Time to first symptomatic recurrent PE/DVT within the patient's study treatment period for all patients is analyzed using Cox's proportional hazards model, stratified on intended treatment duration.

[2] = tested on: patients with symptomatic pulmonary embolism with or without symptomatic deep venous thrombosis; assay: CASSIOPEA (EFC6034) phase III clinical trial: benefit-risk assessment (PE, DVT or major bleeding composite); assay type: in vivo, human; conditions: Randomized population; composite endpoint
From the text: Tables 13 and 14 show the incidence of pulmonary embolism, deep venous thrombosis or major bleedings (composite endpoint) in the randomized population in the treatment phase (3-month or 6-month treatment with idrabiotaparinux) and up to the end of the study (assessment at 12 months).

[3] = tested on: patients with symptomatic pulmonary embolism with or without symptomatic deep venous thrombosis; assay: CASSIOPEA (EFC6034) phase III clinical trial: clinically relevant bleeding (safety); assay type: in vivo, human
From the text: According to the instant invention, the term “bleedings” designates any clinically relevant bleeding (i.e. major or clinically relevant non-major hemorrhage).
According to the instant invention, the term “major bleedings” designates any of the following clinical situations: • bleeding associated with a fall in hemoglobin of 2 g per deciliter or more, • bleeding that led to a transfusion of 2 or more units of packed red cells or whole blood (a red cell unit being defined as the quantity of red cells obtained from or corresponding to approximately 500 ml of whole blood), • bleeding that involved a critical organ (intracranial, intraocular, intraspinal, retroperitoneal or pericardial), • bleeding that contributed to death.
as §1
The principal safety outcome is any clinically relevant bleeding as classified by the CIAC (i.e. major bleeding and other clinically relevant non-major bleeding).
Bleeding analyses are also performed on the—All-randomized—population. Other safety analyses are performed on the—All-treated—population.
Rates of clinically relevant bleedings are calculated in each treatment group at 3 months (99 days) and 6 months (190 days) and compared between treatment groups using a Mantel-Haenszel chi-square stratified on intended treatment duration. Cumulative incidences of clinically relevant bleedings during the combined 3-month and 6-month period and up to the end of study are described by treatment group using the Kaplan Meier method.

[4] = tested on: patients with symptomatic pulmonary embolism with or without symptomatic deep venous thrombosis; assay: CASSIOPEA (EFC6034) phase III clinical trial: deaths; assay type: in vivo, human; conditions: overall
From the text: as §1

[5] = tested on: patients with pulmonary embolism; conditions: human, in vivo; cited from earlier work
[6] = Randomized population, All patients
[7] = Randomized population, Patients with VKA beyond D99/D190
[8] = Randomized population, Patients with no VKA beyond D99/D190
[9] = Randomized population, or death for which PE could not be ruled out
[10] = combined 3-month and 6-month periods, time-to-event analysis (Kaplan-Meier)
[11] = treatment period plus 3 to 6-month post-treatment follow-up (up to end of study)

**Q.** Which results are given for `CC(=O)CC(c1ccccc1)c1c(O)c2ccccc2oc1=O` (stereo not drawn) [Warfarin, warfarin, reference compound]?
**A.** DVT only within 190 days from randomization: Patients with event ([1]; 6-month stratum): 17 (1.3%) n (%); Non-fatal PE within 190 days from randomization: Patients with event ([1]; 6-month stratum): 10 (0.8%) n (%); Symptomatic recurrent PE/DVT (fatal or not) from randomization to end of study: Patients with event ([1]; 6-month stratum, All patients): 76 (6.0%) n (%); Symptomatic recurrent PE/DVT (fatal or not) from randomization to end of study: Patients with event ([1]; 6-month stratum, Patients with VKA beyond D190): 37 (9.1%) n (%); Symptomatic recurrent PE/DVT (fatal or not) from randomization to end of study: Patients with event ([1]; 6-month stratum, Patients with no VKA beyond D190): 39 (4.5%) n (%); Fatal PE within 190 days from randomization: Patients with event ([1]; 6-month stratum, or death for which PE could not be ruled out): 9 (0.7%) n (%); Patients who experienced DVT up to Day 190 ([1]; 6-month stratum, up to Day 190): 1.3%; DVT only up to the end of study: Patients with event ([1]; Randomized population): 31 (1.9%) n (%); DVT only within 99 days from randomization: Patients with event ([1]; Randomized population): 18 (1.1%) n (%); Non-fatal PE up to the end of study: Patients with event ([1]; Randomized population): 41 (2.6%) n (%); Non-fatal PE within 99 days from randomization: Patients with event ([1]; Randomized population): 9 (0.6%) n (%); Symptomatic recurrent PE/DVT (fatal or not) within 190 days from randomization: Patients with event ([1]; Randomized population in the 6-month stratum): 36 (2.8%) n (%); Symptomatic recurrent PE/DVT (fatal or not) from D100/D191 to end of study: Patients with event [1, 6]: 47 (3.1%) n (%); Symptomatic recurrent PE/DVT (fatal or not) from randomization to end of study: Patients with event [1, 6]: 97 (6.1%) n (%); Symptomatic recurrent PE/DVT (fatal or not) from D100/D191 to end of study: Patients with event [1, 7]: 32 (6.6%) n (%); Symptomatic recurrent PE/DVT (fatal or not) from randomization to end of study: Patients with event [1, 7]: 45 (9.3%) n (%); Symptomatic recurrent PE/DVT (fatal or not) from D100/D191 to end of study: Patients with event [1, 8]: 15 (1.5%) n (%); Symptomatic recurrent PE/DVT (fatal or not) from randomization to end of study: Patients with event [1, 8]: 52 (4.6%) n (%); Fatal PE up to the end of study: Patients with event [1, 9]: 25 (1.6%) n (%); Fatal PE within 99 days from randomization: Patients with event [1, 9]: 16 (1.0%) n (%); Symptomatic recurrent PE/DVT (fatal or not) within 99 days from randomization: Patients with event ([1]; Randomized population, within 99 days): 43 (2.7%) n (%); Cumulative incidence of symptomatic recurrent PE/DVT at Day 99 [1, 10]: 2.7%; Cumulative incidence of symptomatic recurrent PE/DVT at Day 190 [1, 10]: 3.4%; Cumulative incidence rate of symptomatic recurrent PE/DVT at Day 360 [1, 11]: 7.2%; Patients who experienced DVT up to Day 99 ([1]; up to Day 99): 1.1%; Patients who experienced DVT up to the end of study ([1]; up to the end of study): 1.9%; Patients who experienced non-fatal PE up to the end of study ([1]; up to the end of study): 2.6%; PE, DVT or major bleeding in the combined 3-month and 6-month period: Patients with event [2]: 98 (6.1%) n (%); PE, DVT or major bleeding up to the end of study: Patients with event [2]: 150 (9.4%) n (%); Clinically relevant bleedings up to Day 190 ([3]; 6-month stratum): 8.1%; Fatal bleeding within 190 days from randomization: Patients with event ([3]; 6-month stratum): 5 (0.4%) n (%); Intracranial haemorrhage (fatal or not) within 190 days from randomization: Patients with event ([3]; 6-month stratum): 6 (0.5%) n (%); Major bleeding within 190 days from randomization: Patients with event ([3]; 6-month stratum): 36 (2.8%) n (%); Patients who experienced a major bleeding up to Day 190 ([3]; 6-month stratum): 2.8%; Any clinically relevant bleeding within 99 days from randomization: Patients with event ([3]; Randomized population): 106 (6.6%) n (%); Fatal bleeding within 99 days from randomization: Patients with event ([3]; Randomized population): 6 (0.4%) n (%); Intracranial haemorrhage (fatal or not) within 99 days from randomization: Patients with event ([3]; Randomized population): 7 (0.4%) n (%); Major bleeding within 99 days from randomization: Patients with event ([3]; Randomized population): 39 (2.4%) n (%); Cumulative incidence of clinically relevant bleeding at Day 99 [3, 10]: 6.7%; Cumulative incidence of clinically relevant bleeding at Day 190 [3, 10]: 9.1%; Cumulative incidence rate of clinically relevant bleeding at Day 360 [3, 11]: 10.0%; Incidence of clinically relevant bleeding up to Day 99 ([3]; up to Day 99): 6.6%; Patients who experienced a major bleeding up to Day 99 ([3]; up to Day 99): 2.4%; Patients who died on study [4]: 5.3%

**Q.** With `CO[C@H]1O[C@H](COS(=O)(=O)O)[C@@H](O[C@@H]2O[C@@H](C(=O)O)[C@@H](O[C@H]3O[C@H](COS(=O)(=O)O)[C@@H](O[C@@H]4O[C@H](C(=O)O)[C@@H](O[C@H]5O[C@H](COS(=O)(=O)O)[C@@H](OC)[C@H](OC)[C@H]5OC)[C@H](OC)[C@H]4OC)[C@H](OS(=O)(=O)O)[C@H]3OS(=O)(=O)O)[C@H](OC)[C@H]2OC)[C@H](OS(=O)(=O)O)[C@H]1OS(=O)(=O)O` [idraparinux] as the molecule, how does the “Outcome in patients with pulmonary embolism” value [5] read?
**A.** Its value is “apparent failure”.
